Data from BindingDB's records for doi:10.1021/acschembio.6b00012 (Broad Institute, 2016).

What was measured:
Test in all cases: HDAC Enzymatic Assay
Details in all cases: pH 7.4
Histone deacetylase 1 = Histone deacetylase 1 (Homo sapiens, UniProt Q13547)
Procedure: (§1) Briefly, this fluorogenic assays uses an acetylated lysine tripeptide substrate, amide-linked to a fluorescently quenched aminocoumarin (AMC). Enzyme reactions were run in 50 mM HEPES, 100 mM KCl, 0.001% (v/v) Tween-20, 0.05% (w/v) BSA, pH 7.4. The appropriate substrate concentration for each HDAC was determined using their corresponding Km values. Km values were determined by monitoring the increase of fluorescence of each HDAC at varying substrate concentrations. The increase in fluorescence units was plotted versus substrate concentration. Assays corresponding to HDACs 4, 5, 7, 8, 9 involved a trifluoroacetylated lysine substrate as described in Bradner et al, while HDACs 1, 2, 3, and 6 used an acetyl-Leu-Gly-acetyl-Lys tripeptide as the substrate. Reactions were carriedout in 384-well plates and fluorescence was measured using a multi-label plate reader and plate stacker (Envision, Perkin-Elmer).

Histone deacetylase 2 = Histone deacetylase 2 (Homo sapiens, UniProt Q92769)
Histone deacetylase 2, sequence (Q92769 whole entry): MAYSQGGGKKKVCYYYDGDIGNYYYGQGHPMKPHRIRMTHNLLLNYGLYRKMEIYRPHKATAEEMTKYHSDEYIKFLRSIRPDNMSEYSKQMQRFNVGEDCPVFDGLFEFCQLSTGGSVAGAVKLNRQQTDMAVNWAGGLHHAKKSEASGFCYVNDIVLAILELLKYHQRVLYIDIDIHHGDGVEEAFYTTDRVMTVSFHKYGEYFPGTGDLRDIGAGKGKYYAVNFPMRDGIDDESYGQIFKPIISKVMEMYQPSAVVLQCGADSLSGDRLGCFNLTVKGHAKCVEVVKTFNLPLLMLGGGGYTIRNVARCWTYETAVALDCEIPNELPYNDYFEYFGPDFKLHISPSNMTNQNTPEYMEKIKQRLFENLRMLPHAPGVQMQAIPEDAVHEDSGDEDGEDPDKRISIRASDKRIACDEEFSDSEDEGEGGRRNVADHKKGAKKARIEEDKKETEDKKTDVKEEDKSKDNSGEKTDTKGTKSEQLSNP
Procedure: as §1

Histone deacetylase 3 = Histone deacetylase 3 (Homo sapiens, UniProt O15379)
Histone deacetylase 3, sequence (O15379 whole entry): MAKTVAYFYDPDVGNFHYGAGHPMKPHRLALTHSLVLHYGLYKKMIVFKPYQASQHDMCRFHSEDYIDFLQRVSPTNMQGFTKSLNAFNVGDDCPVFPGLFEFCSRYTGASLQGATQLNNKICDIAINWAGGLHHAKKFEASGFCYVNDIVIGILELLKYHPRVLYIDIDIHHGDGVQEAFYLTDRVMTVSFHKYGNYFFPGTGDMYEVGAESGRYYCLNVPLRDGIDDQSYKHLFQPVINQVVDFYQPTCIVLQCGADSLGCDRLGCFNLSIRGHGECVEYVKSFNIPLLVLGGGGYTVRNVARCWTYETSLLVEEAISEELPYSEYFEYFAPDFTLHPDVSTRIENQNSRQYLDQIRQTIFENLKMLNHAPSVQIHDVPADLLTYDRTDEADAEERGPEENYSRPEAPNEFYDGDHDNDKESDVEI
Procedure: as §1

Histone deacetylase 4 = Histone deacetylase 4 (Homo sapiens, UniProt P56524)
Histone deacetylase 4, sequence (P56524 whole entry): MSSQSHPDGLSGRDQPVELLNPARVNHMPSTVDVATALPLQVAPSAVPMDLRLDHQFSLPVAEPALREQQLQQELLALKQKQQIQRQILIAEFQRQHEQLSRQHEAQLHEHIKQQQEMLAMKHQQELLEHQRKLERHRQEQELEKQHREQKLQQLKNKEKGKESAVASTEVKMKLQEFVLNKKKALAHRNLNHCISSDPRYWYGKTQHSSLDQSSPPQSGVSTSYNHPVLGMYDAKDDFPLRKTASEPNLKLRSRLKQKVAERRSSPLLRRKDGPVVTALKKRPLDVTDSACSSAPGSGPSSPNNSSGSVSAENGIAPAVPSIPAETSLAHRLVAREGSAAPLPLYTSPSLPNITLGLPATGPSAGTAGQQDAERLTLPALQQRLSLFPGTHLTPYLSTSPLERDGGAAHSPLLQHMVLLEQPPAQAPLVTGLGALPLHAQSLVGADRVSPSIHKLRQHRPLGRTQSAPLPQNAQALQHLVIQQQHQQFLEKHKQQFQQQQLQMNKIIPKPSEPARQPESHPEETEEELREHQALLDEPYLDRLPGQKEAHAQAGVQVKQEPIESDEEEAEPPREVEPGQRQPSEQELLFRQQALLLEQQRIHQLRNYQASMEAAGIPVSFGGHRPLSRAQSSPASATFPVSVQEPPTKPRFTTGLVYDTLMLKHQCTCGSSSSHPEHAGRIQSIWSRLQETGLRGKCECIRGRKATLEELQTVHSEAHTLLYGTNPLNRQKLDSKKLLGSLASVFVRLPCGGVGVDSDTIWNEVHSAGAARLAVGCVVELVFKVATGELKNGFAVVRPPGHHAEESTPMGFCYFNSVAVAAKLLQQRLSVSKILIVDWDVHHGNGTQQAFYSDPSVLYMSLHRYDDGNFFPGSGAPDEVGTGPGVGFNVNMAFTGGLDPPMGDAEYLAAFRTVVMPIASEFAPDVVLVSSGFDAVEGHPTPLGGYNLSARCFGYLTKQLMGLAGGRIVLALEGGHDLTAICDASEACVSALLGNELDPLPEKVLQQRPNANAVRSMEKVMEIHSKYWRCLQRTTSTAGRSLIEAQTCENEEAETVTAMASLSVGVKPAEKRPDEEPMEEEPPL
Procedure: as §1

Histone deacetylase 5 = Histone deacetylase 5 (Homo sapiens, UniProt Q9UQL6)
Histone deacetylase 5, sequence (Q9UQL6 whole entry): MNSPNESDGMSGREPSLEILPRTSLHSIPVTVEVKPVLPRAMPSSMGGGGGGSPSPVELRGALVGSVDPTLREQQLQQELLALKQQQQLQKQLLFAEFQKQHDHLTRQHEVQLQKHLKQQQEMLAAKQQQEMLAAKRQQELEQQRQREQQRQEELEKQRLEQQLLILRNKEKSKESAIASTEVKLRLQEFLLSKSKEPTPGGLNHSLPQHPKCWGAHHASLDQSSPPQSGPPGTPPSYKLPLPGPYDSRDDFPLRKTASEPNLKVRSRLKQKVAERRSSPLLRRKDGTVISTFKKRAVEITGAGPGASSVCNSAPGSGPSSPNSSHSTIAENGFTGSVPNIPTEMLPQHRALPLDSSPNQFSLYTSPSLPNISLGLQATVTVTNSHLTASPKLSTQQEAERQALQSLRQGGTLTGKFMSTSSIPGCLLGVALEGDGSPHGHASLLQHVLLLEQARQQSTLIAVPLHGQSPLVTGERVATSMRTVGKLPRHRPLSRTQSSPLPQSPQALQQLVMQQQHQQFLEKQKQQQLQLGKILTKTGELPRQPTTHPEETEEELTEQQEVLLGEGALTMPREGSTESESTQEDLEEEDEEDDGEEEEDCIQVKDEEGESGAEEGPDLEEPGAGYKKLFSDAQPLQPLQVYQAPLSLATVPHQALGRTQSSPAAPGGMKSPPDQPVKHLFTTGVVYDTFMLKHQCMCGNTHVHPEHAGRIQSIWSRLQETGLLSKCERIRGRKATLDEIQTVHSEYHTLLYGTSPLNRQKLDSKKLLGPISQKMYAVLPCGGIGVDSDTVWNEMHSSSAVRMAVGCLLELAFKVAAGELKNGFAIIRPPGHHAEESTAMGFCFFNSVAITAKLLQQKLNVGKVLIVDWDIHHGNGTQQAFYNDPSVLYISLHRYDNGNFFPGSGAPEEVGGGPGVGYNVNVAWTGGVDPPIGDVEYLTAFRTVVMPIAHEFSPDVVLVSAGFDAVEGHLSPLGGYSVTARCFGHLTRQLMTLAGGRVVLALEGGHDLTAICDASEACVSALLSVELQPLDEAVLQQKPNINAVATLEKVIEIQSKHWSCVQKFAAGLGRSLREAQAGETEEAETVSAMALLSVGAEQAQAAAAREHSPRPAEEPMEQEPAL
Procedure: as §1

Histone deacetylase 7 = target: T1, Histone deacetylase 7 (Homo sapiens, UniProt Q8WUI4)
T1 sequence (Q8WUI4 whole entry): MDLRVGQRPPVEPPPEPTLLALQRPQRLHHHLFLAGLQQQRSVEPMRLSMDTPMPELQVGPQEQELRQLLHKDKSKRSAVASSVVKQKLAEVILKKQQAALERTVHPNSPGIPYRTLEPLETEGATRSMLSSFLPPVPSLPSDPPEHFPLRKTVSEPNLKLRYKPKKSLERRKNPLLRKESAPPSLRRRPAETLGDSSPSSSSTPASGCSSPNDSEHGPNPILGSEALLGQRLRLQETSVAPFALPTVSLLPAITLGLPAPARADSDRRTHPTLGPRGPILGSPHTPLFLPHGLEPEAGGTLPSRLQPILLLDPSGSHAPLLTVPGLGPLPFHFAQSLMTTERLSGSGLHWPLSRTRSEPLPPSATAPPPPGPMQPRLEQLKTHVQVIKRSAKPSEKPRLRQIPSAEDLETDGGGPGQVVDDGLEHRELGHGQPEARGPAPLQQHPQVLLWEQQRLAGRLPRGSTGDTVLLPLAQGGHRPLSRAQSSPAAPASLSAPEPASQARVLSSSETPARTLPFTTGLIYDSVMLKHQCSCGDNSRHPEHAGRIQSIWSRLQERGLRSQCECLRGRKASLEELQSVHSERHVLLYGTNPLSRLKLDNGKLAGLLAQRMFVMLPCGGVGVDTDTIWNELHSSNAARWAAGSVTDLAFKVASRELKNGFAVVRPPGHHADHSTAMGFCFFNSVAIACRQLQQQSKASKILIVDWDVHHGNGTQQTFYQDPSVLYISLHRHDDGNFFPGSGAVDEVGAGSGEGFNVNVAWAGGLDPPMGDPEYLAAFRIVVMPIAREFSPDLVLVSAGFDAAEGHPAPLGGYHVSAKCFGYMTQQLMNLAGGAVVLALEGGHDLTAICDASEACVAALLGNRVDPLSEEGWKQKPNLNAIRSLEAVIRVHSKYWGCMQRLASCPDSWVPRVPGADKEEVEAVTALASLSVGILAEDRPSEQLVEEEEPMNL
Procedure: as §1

[1] = target: Histone deacetylase 8 [R223M] (Homo sapiens, UniProt Q9BY41, R223M)
Histone deacetylase 8 [R223M], sequence (Q9BY41 whole entry R223W): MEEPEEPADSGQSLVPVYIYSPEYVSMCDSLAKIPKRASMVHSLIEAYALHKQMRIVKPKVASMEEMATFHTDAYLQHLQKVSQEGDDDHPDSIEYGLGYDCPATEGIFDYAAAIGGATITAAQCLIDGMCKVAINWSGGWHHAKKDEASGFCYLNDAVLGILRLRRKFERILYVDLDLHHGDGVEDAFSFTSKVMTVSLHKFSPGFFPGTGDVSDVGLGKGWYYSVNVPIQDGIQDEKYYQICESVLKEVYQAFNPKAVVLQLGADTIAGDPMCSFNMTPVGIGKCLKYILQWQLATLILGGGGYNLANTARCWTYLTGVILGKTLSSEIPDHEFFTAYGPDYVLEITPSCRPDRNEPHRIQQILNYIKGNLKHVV
Procedure: as §1

Histone deacetylase 9 = Histone deacetylase 9 (Homo sapiens, UniProt Q9UKV0)
Histone deacetylase 9, sequence (Q9UKV0 whole entry): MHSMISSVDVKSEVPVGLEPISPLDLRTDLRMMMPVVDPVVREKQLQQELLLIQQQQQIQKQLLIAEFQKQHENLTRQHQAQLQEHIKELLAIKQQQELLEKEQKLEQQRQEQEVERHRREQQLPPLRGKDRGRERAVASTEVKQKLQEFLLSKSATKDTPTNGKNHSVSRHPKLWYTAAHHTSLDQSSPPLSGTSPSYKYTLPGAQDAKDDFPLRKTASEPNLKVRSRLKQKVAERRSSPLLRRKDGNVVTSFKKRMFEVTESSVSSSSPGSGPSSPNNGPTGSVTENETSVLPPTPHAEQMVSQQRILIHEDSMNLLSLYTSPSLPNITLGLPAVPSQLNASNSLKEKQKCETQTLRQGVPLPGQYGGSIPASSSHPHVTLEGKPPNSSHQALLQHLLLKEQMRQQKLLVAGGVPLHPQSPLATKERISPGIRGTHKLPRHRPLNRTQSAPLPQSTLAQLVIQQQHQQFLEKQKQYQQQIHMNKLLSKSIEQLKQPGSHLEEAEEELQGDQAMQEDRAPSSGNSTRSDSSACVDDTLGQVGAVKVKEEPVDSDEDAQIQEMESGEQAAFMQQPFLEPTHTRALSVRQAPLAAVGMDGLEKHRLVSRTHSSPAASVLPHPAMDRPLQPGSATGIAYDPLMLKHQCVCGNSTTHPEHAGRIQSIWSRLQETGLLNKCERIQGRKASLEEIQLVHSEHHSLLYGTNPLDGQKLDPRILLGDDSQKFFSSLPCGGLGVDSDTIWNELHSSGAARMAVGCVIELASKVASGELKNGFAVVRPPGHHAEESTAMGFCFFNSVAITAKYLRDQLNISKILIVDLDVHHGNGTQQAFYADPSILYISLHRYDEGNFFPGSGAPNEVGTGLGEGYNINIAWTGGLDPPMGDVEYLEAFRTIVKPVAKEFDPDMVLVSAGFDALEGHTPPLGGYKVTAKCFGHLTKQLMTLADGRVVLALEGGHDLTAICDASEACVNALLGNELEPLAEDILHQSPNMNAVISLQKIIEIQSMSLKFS
Procedure: as §1

Histone deacetylase 1, sequence (Q13547 whole entry): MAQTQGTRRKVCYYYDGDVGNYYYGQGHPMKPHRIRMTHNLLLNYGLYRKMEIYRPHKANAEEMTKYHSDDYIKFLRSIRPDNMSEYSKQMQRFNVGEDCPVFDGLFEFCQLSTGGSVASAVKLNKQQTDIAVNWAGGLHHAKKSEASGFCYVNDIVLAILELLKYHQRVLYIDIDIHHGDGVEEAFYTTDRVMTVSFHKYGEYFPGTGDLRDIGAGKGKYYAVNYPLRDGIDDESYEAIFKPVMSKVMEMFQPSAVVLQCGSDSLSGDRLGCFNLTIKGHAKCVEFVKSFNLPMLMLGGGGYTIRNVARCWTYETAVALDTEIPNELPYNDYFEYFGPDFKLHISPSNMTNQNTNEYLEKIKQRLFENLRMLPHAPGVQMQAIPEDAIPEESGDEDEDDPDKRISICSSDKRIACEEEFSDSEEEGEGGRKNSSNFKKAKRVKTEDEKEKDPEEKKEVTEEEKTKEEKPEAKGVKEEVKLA

- IC50 (Histone deacetylase 1): 40.4 µM
- IC50 (Histone deacetylase 2): 67.2 µM
- IC50 (Histone deacetylase 3): 65.1 µM
- IC50 (Histone deacetylase 4): 13.8 µM
- IC50 (Histone deacetylase 5): 0.85 µM
- IC50 (Histone deacetylase 7): 8.44 µM
- IC50 [1]: 3.89 µM
- IC50 (Histone deacetylase 9): 1.88 µM
SMILES: CCN1CCN(C(c2cccnc2)c2cc(Cl)c3cccnc3c2O)CC1 (stereo not drawn) [5-chloranyl-7-[(4-ethylpiperazin-1-yl)-pyridin-3-yl-methyl]quinolin-8-ol]
